{
  "source": "patent US6303630A",
  "about": "“Diarylsulfone non-nucleoside reverse transcriptase inhibitors of human immunodeficiency virus” (University of the Sciences in Philadelphia, priority 2000, dated 2001)",
  "key": {"HIV-1": {"tested_on": "HIV-1", "experiment": "NCI in vitro anti-HIV drug screen: XTT-formazan assay, protection of T4 lymphocytes (CEM) from HIV-1 cytopathic effects", "type": "cell-based, human immunodeficiency virus (HIV-1)", "conditions": "for TI50 (IC/EC), Therapeutic Index: IC50/EC50", "experimental": "Compounds of the present invention were evaluated for anti-HIV efficacy by the National Cancer Institute's (NCI) In Vitro Anti AIDS Drug Discovery Program.\n(§1) The NCI procedure is fully described, for example, in a bulletin provided by the National Institutes of Health, National Cancer Institute, Bethesda, Md. 20892, all of which is incorporated herein by reference. As related in the NCI bulletin, the procedure is based on O. W. Weislow et al., \"New soluble-formazan assay for HIV-1 cytopathic effects: application to high flux screening of synthetic and natural products for AIDS-antiviral activity\", J. Natl. Cancer Inst. 81:577-586 (1989), and is used to test for compounds active against human immunodeficiency virus (HIV), and is designed to detect compounds active at any stage of the virus reproductive cycle. As further related in the NCI bulletin, the assay includes killing of T4 lymphocytes by HIV. Amounts of HIV are added to cells, with a minimum of two cycles of virus reproduction found to be necessary to obtain the required cell killing. Compounds that interact with virions, cells, or virus gene-products to interfere with viral activities will protect cells from cytolysis. All were compared with a positive (e.g., AZT-treated) control evaluation at the same time under identical conditions. The procedure is set forth as follows:\n(§2) A candidate compound is first dissolved in a suitable solvent, preferably dimethyl sulfoxide, then diluted 1:100 in cell culture medium before preparing serial half-log10 dilutions. T4 lymphocytes (CEM cell line) are then added and after a brief interval HIV-1 is added, resulting in a 1:200 final dilution of the compound. Uninfected cells with the compound serve as a toxicity control, and infected and uninfected without the compound serve as basic controls. Cultures are then incubated at 37° in a 5% carbon dioxide atmosphere for 6 days. The tetrazolium salt, XTT, is added to all wells, and cultures are incubated to allow formazan color development by viable cells. Individual wells are analyzed spectrophotometrically to quantitate formazan product, and in addition are viewed microscopically for detection of viable cells and confirmation of protective activity. Drug-treated virus-infected cells are compared with drug-treated noninfected cells and with other appropriate controls (untreated infected and untreated noninfected cells, drug-containing wells without cells, etc.) on the same plate. Data are reviewed in comparison with other tests performed at the same time and a determination as to activity is made."}, "[1]": {"tested_on": "T4 lymphocytes (CEM cell line)", "experiment": "Cell growth / toxicity control in uninfected T4 lymphocytes (CEM), XTT-formazan", "type": "cell-based", "conditions": "for IC50: read-out: IC50 (50% inhibitory concentration for cell growth), uninfected CEM cells, 6 days, XTT, approximate values", "description": "as §1, §2"}, "[2]": {"conditions": "dose 2.00 × 10^-4 Molar, listed as Example 21"}, "[3]": {"conditions": "dose 2.00 × 10^-5 Molar, listed as Example 21"}},
  "note": "Read-outs that look alike come from different tables or passages of the source.",
  "data": [
    {"smiles": "CNc1ccccc1S(=O)(=O)c1ccccc1[N+](=O)[O-]", "note": "[Compound 66, 2-(2-nitrophenylsulfonyl)-N-methylaniline]", "values": [
      {"measurement": "EC50", "setting": "HIV-1; Human immunodeficiency virus 1, CCRF-CEM, 144 h, HIV-1 infected CEM cells, 6 days, XTT, approximate values, read-out: EC50 (50% effective concentration against HIV cytopathic effects)", "result": 1.02, "unit": "µM"},
      {"measurement": "inhibition at 2 µM", "setting": "HIV-1; Human immunodeficiency virus 1, CCRF-CEM, dose 2.00 × 10^-6 Molar, read-out: Percent of Protection", "result": 93.1, "unit": "%"},
      {"measurement": "inhibition at 6.33 µM", "setting": "HIV-1; Human immunodeficiency virus 1, CCRF-CEM, dose 6.33 × 10^-6 Molar, read-out: Percent of Protection", "result": 107, "unit": "%"},
      {"measurement": "activity at 2 µM", "setting": "HIV-1; Human immunodeficiency virus 1, Lymphocyte, dose 2.00 × 10^-6 Molar, read-out: Percent of Control, Infected", "result": 93.8, "unit": "%"},
      {"measurement": "activity at 6.33 µM", "setting": "HIV-1; Human immunodeficiency virus 1, Lymphocyte, dose 6.33 × 10^-6 Molar, read-out: Percent of Control, Infected", "result": 106, "unit": "%"},
      {"measurement": "TI50 (IC/EC), Therapeutic Index", "setting": "HIV-1; listed as Example 21", "result": "4.24 × 10^+1"},
      {"measurement": "Percent of Protection", "setting": "HIV-1; dose 2.00 × 10^-4 Molar, 200 µM, listed as Example 21, 200 µM", "result": -15.92, "unit": "%"},
      {"measurement": "Percent of Control, Infected", "setting": "HIV-1; [2]", "result": -4.33, "unit": "%"},
      {"measurement": "Percent of Protection", "setting": "HIV-1; dose 2.00 × 10^-5 Molar, 20 µM, listed as Example 21, 20 µM", "result": 98.73, "unit": "%"},
      {"measurement": "Percent of Control, Infected", "setting": "HIV-1; [3]", "result": 98.86, "unit": "%"},
      {"measurement": "Percent of Protection", "setting": "HIV-1; dose 2.00 × 10^-7 Molar, 0.2 µM, listed as Example 21, 0.2 µM", "result": 4.77, "unit": "%"},
      {"measurement": "Percent of Control, Infected", "setting": "HIV-1; dose 2.00 × 10^-7 Molar, listed as Example 21", "result": 14.29, "unit": "%"},
      {"measurement": "Percent of Protection", "setting": "HIV-1; dose 6.32 × 10^-5 Molar, 63.2 µM, listed as Example 21, 63.2 µM", "result": 24.17, "unit": "%"},
      {"measurement": "Percent of Control, Infected", "setting": "HIV-1; dose 6.32 × 10^-5 Molar, listed as Example 21", "result": 31.75, "unit": "%"},
      {"measurement": "Percent of Protection", "setting": "HIV-1; dose 6.34 × 10^-7 Molar, 0.634 µM, listed as Example 21, 0.634 µM", "result": 19.34, "unit": "%"},
      {"measurement": "Percent of Control, Infected", "setting": "HIV-1; dose 6.34 × 10^-7 Molar, listed as Example 21", "result": 27.41, "unit": "%"},
      {"measurement": "Percent of Protection", "setting": "HIV-1; dose 6.35 × 10^-8 Molar, 0.0635 µM, listed as Example 21, 0.0635 µM", "result": 2.40, "unit": "%"},
      {"measurement": "Percent of Control, Infected", "setting": "HIV-1; dose 6.35 × 10^-8 Molar, listed as Example 21", "result": 12.16, "unit": "%"},
      {"measurement": "activity at 2 µM", "setting": "[1]; Homo sapiens, CCRF-CEM, dose 2.00 × 10^-6 Molar, read-out: Percent of Control, Uninfected", "result": 101, "unit": "%"},
      {"measurement": "activity at 0.2 µM", "setting": "[1]; Homo sapiens, CCRF-CEM, dose 2.00 × 10^-7 Molar, read-out: Percent of Control, Uninfected", "result": 105, "unit": "%"},
      {"measurement": "activity at 63.2 µM", "setting": "[1]; Homo sapiens, CCRF-CEM, dose 6.32 × 10^-5 Molar, read-out: Percent of Control, Uninfected", "result": 23.9, "unit": "%"},
      {"measurement": "activity at 0.634 µM", "setting": "[1]; Homo sapiens, CCRF-CEM, dose 6.34 × 10^-7 Molar, read-out: Percent of Control, Uninfected", "result": 99.4, "unit": "%"},
      {"measurement": "activity at 0.0635 µM", "setting": "[1]; Homo sapiens, CCRF-CEM, dose 6.35 × 10^-8 Molar, read-out: Percent of Control, Uninfected", "result": 98.5, "unit": "%"},
      {"measurement": "Percent of Control, Uninfected", "setting": "[1]; [2]", "result": -4.40, "unit": "%"},
      {"measurement": "Percent of Control, Uninfected", "setting": "[1]; [3]", "result": 104.09, "unit": "%"},
      {"measurement": "Percent of Control, Uninfected", "setting": "[1]; dose 6.33 × 10^-6 Molar, listed as Example 21", "result": 109.40, "unit": "%"},
      {"measurement": "IC50", "setting": "[1]; listed as Example 21", "result": 43.5, "unit": "µM"}
    ]},
    {"smiles": "CNc1ccccc1S(=O)(=O)c1ccccc1[N+](=O)[O-]", "note": "[Example 22, 2-(2-nitrophenylsulfonyl)-N-methylaniline]", "values": [
      {"measurement": "TI50 (IC/EC), Therapeutic Index", "setting": "HIV-1", "result": "1.80 × 10^+2"},
      {"measurement": "Percent of Control, Infected", "setting": "HIV-1; dose 2.00 × 10^-4 Molar", "result": 6.35, "unit": "%"},
      {"measurement": "Percent of Protection", "setting": "HIV-1; dose 2.00 × 10^-4 Molar, 200 µM", "result": 1.42, "unit": "%"},
      {"measurement": "Percent of Control, Infected", "setting": "HIV-1; dose 2.00 × 10^-5 Molar", "result": 43.49, "unit": "%"},
      {"measurement": "Percent of Protection", "setting": "HIV-1; dose 2.00 × 10^-5 Molar, 20 µM", "result": 40.52, "unit": "%"},
      {"measurement": "Percent of Control, Infected", "setting": "HIV-1; dose 2.00 × 10^-6 Molar", "result": 107.31, "unit": "%"},
      {"measurement": "Percent of Protection", "setting": "HIV-1; dose 2.00 × 10^-6 Molar, 2 µM", "result": 107.69, "unit": "%"},
      {"measurement": "Percent of Control, Infected", "setting": "HIV-1; dose 2.00 × 10^-7 Molar", "result": 99.97, "unit": "%"},
      {"measurement": "Percent of Protection", "setting": "HIV-1; dose 2.00 × 10^-7 Molar, 0.2 µM", "result": 99.97, "unit": "%"},
      {"measurement": "Percent of Control, Infected", "setting": "HIV-1; dose 6.32 × 10^-5 Molar", "result": 5.67, "unit": "%"},
      {"measurement": "Percent of Protection", "setting": "HIV-1; dose 6.32 × 10^-5 Molar, 63.2 µM", "result": 0.71, "unit": "%"},
      {"measurement": "Percent of Control, Infected", "setting": "HIV-1; dose 6.33 × 10^-6 Molar", "result": 100.65, "unit": "%"},
      {"measurement": "Percent of Protection", "setting": "HIV-1; dose 6.33 × 10^-6 Molar, 6.33 µM", "result": 100.68, "unit": "%"},
      {"measurement": "Percent of Control, Infected", "setting": "HIV-1; dose 6.34 × 10^-7 Molar", "result": 110.38, "unit": "%"},
      {"measurement": "Percent of Protection", "setting": "HIV-1; dose 6.34 × 10^-7 Molar, 0.634 µM", "result": 110.93, "unit": "%"},
      {"measurement": "Percent of Control, Infected", "setting": "HIV-1; dose 6.35 × 10^-8 Molar", "result": 88.79, "unit": "%"},
      {"measurement": "Percent of Protection", "setting": "HIV-1; dose 6.35 × 10^-8 Molar, 0.0635 µM", "result": 88.20, "unit": "%"},
      {"measurement": "Percent of Control, Uninfected", "setting": "[1]; dose 2.00 × 10^-4 Molar", "result": 1.98, "unit": "%"},
      {"measurement": "Percent of Control, Uninfected", "setting": "[1]; dose 2.00 × 10^-5 Molar", "result": 36.62, "unit": "%"},
      {"measurement": "Percent of Control, Uninfected", "setting": "[1]; dose 2.00 × 10^-6 Molar", "result": 88.74, "unit": "%"},
      {"measurement": "Percent of Control, Uninfected", "setting": "[1]; dose 2.00 × 10^-7 Molar", "result": 92.07, "unit": "%"},
      {"measurement": "Percent of Control, Uninfected", "setting": "[1]; dose 6.32 × 10^-5 Molar", "result": 15.40, "unit": "%"},
      {"measurement": "Percent of Control, Uninfected", "setting": "[1]; dose 6.33 × 10^-6 Molar", "result": 87.28, "unit": "%"},
      {"measurement": "Percent of Control, Uninfected", "setting": "[1]; dose 6.34 × 10^-7 Molar", "result": 97.06, "unit": "%"},
      {"measurement": "Percent of Control, Uninfected", "setting": "[1]; dose 6.35 × 10^-8 Molar", "result": 96.33, "unit": "%"},
      {"measurement": "IC50", "setting": "[1]", "result": 14.8, "unit": "µM"}
    ]}
  ]
}
